According to ChEMBL document CHEMBL3421558, “Structure activity relationship of substituted 1,5-naphthyridine analogs of oxabicyclooctane-linked novel bacterial topoisomerase inhibitors as broad-spectrum antibacterial agents (Part-4)” (Bioorg Med Chem Lett, 2015):
Converted amounts (≈) assume the structure as drawn.

Test system: Acinetobacter baumannii
Test: Antimicrobial activity against Acinetobacter baumannii IID876 by micro broth dilution or agar based method
Assay type: functional
Conditions: Acinetobacter baumannii, IID876; read-out: MIC

Compound	MIC [µg/mL]
CCOC(=O)c1c(OC)cnc2c(CCC34CCC(NCc5ccc6c(n5)NC(=O)CO6)(CC3)CO4)ccnc12	16 (≈ 29.2 µM)

Test system: Staphylococcus aureus
Test: Antimicrobial activity against quinolone-sensitive Staphylococcus aureus MS5935 by micro broth dilution or agar based method
Conditions: not given

Compound	MIC [µg/mL]
C[C@H]1COc2c(N3CCN(C)CC3)c(F)cc3c(=O)c(C(=O)O)cn1c23.C[C@H]1COc2c(N3CCN(C)CC3)c(F)cc3c(=O)c(C(=O)O)cn1c23.O [LEVOFLOXACIN]	0.25

Biological target: Voltage-gated inwardly rectifying potassium channel KCNH2 (Homo sapiens, UniProt Q12809)
Test: Inhibition of MK499 binding to human ERG
Conditions: not given

Voltage-gated inwardly rectifying potassium channel KCNH2, sequence (Q12809 whole entry): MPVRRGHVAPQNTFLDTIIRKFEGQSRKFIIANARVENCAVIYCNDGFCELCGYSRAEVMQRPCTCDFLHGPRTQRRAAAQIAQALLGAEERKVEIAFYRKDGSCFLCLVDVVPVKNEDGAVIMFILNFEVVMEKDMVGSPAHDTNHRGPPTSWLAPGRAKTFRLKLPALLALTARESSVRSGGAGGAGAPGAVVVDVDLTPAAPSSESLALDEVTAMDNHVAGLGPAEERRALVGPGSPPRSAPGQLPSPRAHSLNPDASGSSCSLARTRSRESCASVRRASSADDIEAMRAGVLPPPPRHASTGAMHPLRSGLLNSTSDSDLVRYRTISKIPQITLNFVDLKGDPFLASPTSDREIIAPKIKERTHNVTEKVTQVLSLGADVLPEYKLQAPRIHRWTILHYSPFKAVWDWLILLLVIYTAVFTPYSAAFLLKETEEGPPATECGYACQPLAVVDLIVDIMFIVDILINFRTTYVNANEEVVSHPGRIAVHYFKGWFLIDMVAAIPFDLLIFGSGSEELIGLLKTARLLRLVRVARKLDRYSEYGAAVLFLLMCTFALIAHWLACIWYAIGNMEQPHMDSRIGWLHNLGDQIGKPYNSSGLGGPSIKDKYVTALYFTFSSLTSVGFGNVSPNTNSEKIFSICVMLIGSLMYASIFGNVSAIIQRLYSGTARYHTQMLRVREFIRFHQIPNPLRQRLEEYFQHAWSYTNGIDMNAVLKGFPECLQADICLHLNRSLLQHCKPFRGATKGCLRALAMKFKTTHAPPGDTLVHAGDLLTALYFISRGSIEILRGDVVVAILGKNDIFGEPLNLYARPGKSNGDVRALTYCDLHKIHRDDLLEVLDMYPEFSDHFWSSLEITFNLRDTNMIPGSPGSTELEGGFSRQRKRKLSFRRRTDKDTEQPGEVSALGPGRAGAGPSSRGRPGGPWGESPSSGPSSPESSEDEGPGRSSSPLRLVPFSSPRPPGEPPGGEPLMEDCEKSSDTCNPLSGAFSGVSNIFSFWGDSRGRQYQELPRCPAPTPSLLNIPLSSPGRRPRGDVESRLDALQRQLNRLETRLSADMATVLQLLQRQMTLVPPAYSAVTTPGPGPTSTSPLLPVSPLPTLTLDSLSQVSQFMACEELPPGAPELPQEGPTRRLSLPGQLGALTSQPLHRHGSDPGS

Compound	IC50 [µM]
CCOC(=O)c1c(OC)cnc2c(CCC34CCC(NCc5ccc6c(n5)NC(=O)CO6)(CC3)CO4)ccnc12	7.87

Test system: Staphylococcus aureus
Test: Antimicrobial activity against Staphylococcus aureus in orally dosed mouse bacteremia survival model
Assay type: functional
Conditions: po

Compound	ED50 [mg/kg]
Cl.N#Cc1ccc2ncc(F)c(CCC34CCC(NCc5ccc6c(n5)NC(=O)CO6)(CC3)CO4)c2n1	17
COc1ccc2nccc(CCC34CCC(NCc5ccc6c(n5)NC(=O)CO6)(CC3)CO4)c2n1.Cl	> 50
COc1ccc2ncc(C#N)c(CCC34CCC(NCc5ccc6c(n5)NC(=O)CO6)(CC3)CO4)c2n1.Cl	9.6
COc1ccc2ncc(Cl)c(CCC34CCC(NCc5ccc6c(n5)NC(=O)CO6)(CC3)CO4)c2n1.Cl	> 50
COc1ccc2ncc(C#N)c(CC(O)C34CCC(NCc5ccc6c(n5)NC(=O)CO6)(CC3)CO4)c2n1.Cl (configuration not stated)	6.7

Test system: Escherichia coli
Test: Antimicrobial activity against Escherichia coli ATCC 25922 by micro broth dilution or agar based method
Assay type: functional
Conditions: Escherichia coli, ATCC 25922; read-out: MIC

Compound	MIC [µg/mL]
CCOC(=O)c1c(OC)cnc2c(CCC34CCC(NCc5ccc6c(n5)NC(=O)CO6)(CC3)CO4)ccnc12	16 (≈ 29.2 µM)

Test system: Enterococcus faecium
Test: Antimicrobial activity against VanA expressing vancomycin-resistant Enterococcus faecium by micro broth dilution or agar based method
Assay type: functional
Conditions: Enterococcus faecium; read-out: MIC

Compound	MIC [µg/mL]
CCOC(=O)c1c(OC)cnc2c(CCC34CCC(NCc5ccc6c(n5)NC(=O)CO6)(CC3)CO4)ccnc12	16 (≈ 29.2 µM)

Test system: Staphylococcus aureus
Test: Antimicrobial activity against quinolone-resistant Staphylococcus aureus MS5935 by micro broth dilution or agar based method
Assay type: functional
Conditions: not given

Compound	MIC [µg/mL]
C[C@H]1COc2c(N3CCN(C)CC3)c(F)cc3c(=O)c(C(=O)O)cn1c23.C[C@H]1COc2c(N3CCN(C)CC3)c(F)cc3c(=O)c(C(=O)O)cn1c23.O [LEVOFLOXACIN]	> 16

Test system: Staphylococcus aureus
Test: Potency index, ratio of MIC for quinolone-resistant Staphylococcus aureus MS5935 to MIC for quinolone-[…]
Assay type: functional
Conditions: not given

Compound	Ratio
C[C@H]1COc2c(N3CCN(C)CC3)c(F)cc3c(=O)c(C(=O)O)cn1c23.C[C@H]1COc2c(N3CCN(C)CC3)c(F)cc3c(=O)c(C(=O)O)cn1c23.O [LEVOFLOXACIN]	>64
CCOC(=O)c1c(OC)cnc2c(CCC34CCC(NCc5ccc6c(n5)NC(=O)CO6)(CC3)CO4)ccnc12	<4

Test system: Staphylococcus aureus
Test: Antimicrobial activity against methicillin-resistant Staphylococcus aureus OIT971 by micro broth dilution or agar based method
Assay type: functional
Conditions: not given

Compound	MIC [µg/mL]
CCOC(=O)c1c(OC)cnc2c(CCC34CCC(NCc5ccc6c(n5)NC(=O)CO6)(CC3)CO4)ccnc12	16 (≈ 29.2 µM)

Test system: Staphylococcus aureus
Test: Antimicrobial activity against Staphylococcus aureus Smith by micro broth dilution or agar based method
Assay type: functional
Conditions: Staphylococcus aureus, Smith; read-out: MIC

Compound	MIC [µg/mL]
CCOC(=O)c1c(OC)cnc2c(CCC34CCC(NCc5ccc6c(n5)NC(=O)CO6)(CC3)CO4)ccnc12	16 (≈ 29.2 µM)

Test system: Staphylococcus aureus
Test: Antimicrobial activity against Staphylococcus aureus in iv dosed mouse bacteremia survival model
Assay type: functional
Conditions: not given

Compound	ED50 [mg/kg]
Cl.N#Cc1ccc2ncc(F)c(CCC34CCC(NCc5ccc6c(n5)NC(=O)CO6)(CC3)CO4)c2n1	20
COc1ccc2nccc(CCC34CCC(NCc5ccc6c(n5)NC(=O)CO6)(CC3)CO4)c2n1.Cl	7.2
COc1ccc2ncc(C#N)c(CCC34CCC(NCc5ccc6c(n5)NC(=O)CO6)(CC3)CO4)c2n1.Cl	8.6
COc1ccc2ncc(Cl)c(CCC34CCC(NCc5ccc6c(n5)NC(=O)CO6)(CC3)CO4)c2n1.Cl	17
COc1ccc2ncc(C#N)c(CC(O)C34CCC(NCc5ccc6c(n5)NC(=O)CO6)(CC3)CO4)c2n1.Cl (configuration not stated)	5.1

Test system: Streptococcus pneumoniae
Test: Antimicrobial activity against Streptococcus pneumoniae IID553 by micro broth dilution or agar based method
Assay type: functional
Conditions: Streptococcus pneumoniae, IID553; read-out: MIC

Compound	MIC [µg/mL]
CCOC(=O)c1c(OC)cnc2c(CCC34CCC(NCc5ccc6c(n5)NC(=O)CO6)(CC3)CO4)ccnc12	16 (≈ 29.2 µM)

Test system: Pseudomonas aeruginosa
Test: Antimicrobial activity against Pseudomonas aeruginosa PAO1 by micro broth dilution or agar based method
Assay type: functional
Conditions: Pseudomonas aeruginosa, PAO1; read-out: MIC

Compound	MIC [µg/mL]
CCOC(=O)c1c(OC)cnc2c(CCC34CCC(NCc5ccc6c(n5)NC(=O)CO6)(CC3)CO4)ccnc12	16 (≈ 29.2 µM)
